Tested on: tumor that expresses high levels of CXCL12
Test: Tumor growth in mice with a subcutaneous CXCL12-expressing tumor
Assay type: in vivo
Conditions: AMD3100 subcutaneous once a day for 5 days, then NK-92 cells intraperitoneal one to three days after the final dose, contemplated synergistic effect
Procedure: Mice are injected with tumor cells (subcutaneous injection) from a tumor that expresses high levels of CXCL12 and a tumor allowed to develop. Once the tumor has formed, the mice are injected (subcutaneous in the same flank as the tumor) with AMD3100 or vehicle, once a day for 5 days.
One to three days after the final dose of AMD3100, mice are injected via intraperitoneal injection with NK-92 cells or vehicle 18 hours prior to assay of tumor growth. Tumor growth in mice is delayed by NK-92 cell treatment, but resumes soon after the treatment is discontinued in mice that were not administered AMD3100.

## c1cc(CN2CCCNCCNCCCNCC2)ccc1CN1CCCNCCNCCCNCC1 [AMD3100]
  Delay in tumor growth (co-treatment): longer than NK-92 cells alone

From patent US20180117006A1, “ANTI-FUGETACTIC AGENT AND IMMUNOTHERAPY AGENT COMBINATION THERAPY AND COMPOSITIONS FOR THE TREATMENT OF CANCER” (THE GENERAL HOSPITAL CORPORATION, priority 2015, published 2018)
